The values below come from patent publication US9499553B2 (CHUGAI SEIYAKU KABUSHIKI KAISHA, priority 2013, dated 2016).

Each structure is given as a SMILES string.

For assay [1], the target named is T1, human PiT-1 (Homo sapiens, UniProt Q8WUM9).
T1 construct: expressed in transfected cells; host or cells: CHO cells
T1 sequence (Q8WUM9 1-679): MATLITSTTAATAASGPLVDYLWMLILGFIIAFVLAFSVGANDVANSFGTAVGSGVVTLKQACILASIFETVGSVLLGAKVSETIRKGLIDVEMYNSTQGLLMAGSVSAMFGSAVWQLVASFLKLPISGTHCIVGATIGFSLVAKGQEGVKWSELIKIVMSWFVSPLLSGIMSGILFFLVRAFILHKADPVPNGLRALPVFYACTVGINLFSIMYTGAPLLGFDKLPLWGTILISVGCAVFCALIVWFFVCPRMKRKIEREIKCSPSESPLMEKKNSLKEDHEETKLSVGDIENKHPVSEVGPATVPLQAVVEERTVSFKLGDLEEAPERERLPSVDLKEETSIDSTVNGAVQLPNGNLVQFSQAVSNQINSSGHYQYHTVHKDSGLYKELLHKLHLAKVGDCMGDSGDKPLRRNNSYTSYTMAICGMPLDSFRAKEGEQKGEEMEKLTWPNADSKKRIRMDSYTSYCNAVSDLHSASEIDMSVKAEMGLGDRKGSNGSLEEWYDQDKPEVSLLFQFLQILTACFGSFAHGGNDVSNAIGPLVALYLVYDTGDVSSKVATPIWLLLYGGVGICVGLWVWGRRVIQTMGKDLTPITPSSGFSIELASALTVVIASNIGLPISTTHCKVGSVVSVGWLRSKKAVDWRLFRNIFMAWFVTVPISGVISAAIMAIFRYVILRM
In words: Inhibitory effect on 33PO4 uptake into human PiT-1-expressing CHO cells. Format: cell-based. Particulars: compound 0.24, 1.2, 6 or 30 μM, pH 6.5, read-out: IC50 against 33PO4 uptake into human PiT-1-expressing cells. In short, it runs like this: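 CHO cells transiently transfected with human PiT-1 or empty vector were exposed to compound, then to 33PO4 at room temperature and washed ice-cold; uptake counted by scintillation. Inhibition computed on PiT-1-specific uptake (PiT-1 minus vector cells) relative to DMSO wells.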

In assay [2] the test system is chronic kidney disease model rat. The assay can be described thus: Suppressive effect on calcium deposition in blood vessel of chronic kidney disease model rat. In kind it is in vivo. Particulars: thoracic aorta, dosage 0.3% in feed, 14 weeks. Here is the method: Test Example 9: Suppressive Effect on Calcium Deposition in Blood Vessel of Chronic Kidney Disease Model Rat
From the same animal as that in Test Example 7, the thoracic aorta was collected 14 weeks after the start of administration of the test compound, and the dry weight was measured. The measured dry thoracic aorta was subjected to ashing and dissolved in a certain amount of hydrochloric acid, and then the calcium concentration in the solution was measured using OCPC method to determine the amount of calcium per gram of the thoracic aorta dry weight (Katsumata K, Kusano K, Hirata M, Tsunemi K, Nagano N, Burke S K, Fukushima N. Sevelamer hydrochloride prevents ectopic calcification and renal osteodystrophy in chronic renal failure rats. Kidney Int. 2003 August; 64(2): 441-450.) The rate of suppression of calcium deposition in blood vessel was determined according to the following expression: Rate (%) of suppression of calcium deposition in blood vessel=(1−[(Amount of calcium per gram of dried blood vessel of the test compound-treated pathological group)−(Amount of calcium per gram of dried blood vessel of the normal group)]/[(Amount of calcium per gram of dried blood vessel of the reference pathological group)−(Amount of calcium per gram of dried blood vessel of the normal group)])×100

For assay [3] the test system is unchanged. The assay can be described thus: Suppressive effect on rise in serum creatinine concentration of chronic kidney disease model rat. The following applies: dosage 0.3% in feed, 14 weeks. In kind it is in vivo. The text has this: Test Example 7: Suppressive Effect on Rise in Serum Creatinine Concentration of Chronic Kidney Disease Model Rat
A group given feed non-supplemented with the test compound was used as a reference pathological group, and a group neither subjected to the kidney removal nor antibody administration and given feed non-supplemented with the test compound was used as a normal group. Fourteen weeks after the start of administration of the test compound, blood was collected from the abdominal aorta and serum was collected. As an indicator of renal damage, serum creatinine concentrations were measured by an enzyme assay (creatinase-sarcosine oxidase-POD method). The rate of suppression of a rise in serum creatinine concentration was determined according to the following expression: Rate (%) of suppression of a rise in serum creatinine concentration=(1−[(Serum creatinine concentration of the test compound-treated pathological group)−(Serum creatinine concentration of the normal group)]/[(Serum creatinine concentration of the reference pathological group)−(Serum creatinine concentration of the normal group)])×100

On to `COCCN(C)CCOc1ccc(CN2C(=O)C(C(=O)Nc3ccc(C(F)(F)F)cc3-c3cc(C(F)(F)F)ncn3)=C(O)C3(CCCC3)N2C)c(F)c1F` [Example 14, 7-[[2,3-Difluoro-4-[2-[2-methoxyethyl(methyl)amino]ethoxy]phenyl]methyl]-10-hydroxy-6-methyl-8-oxo-N-[4-(trifluoromethyl)-2-[6-(trifluoromethyl)pyrimidin-4-yl]phenyl]-6,7-diazaspiro[4.5]dec-9-ene-9-carboxamide], for which the IC50 in assay [1] came out at 2200 nM. Further, in assay [2], the “Rate of inhibition (%) (suppression of calcium deposition in blood vessel)” value is given as 100% 100%. Also, the “Rate of inhibition (%) (suppression of a rise in serum creatinine concentration)” value in assay [3] is recorded as 24%.
